Test results reported in patent US20130022635A1, “Expression Modulator For Clock Gene Bmal” (SHISEIDO COMPANY, LTD., priority 2010, published 2013).

Tests used:
[1] = test system: Period1 gene; test: Period1 gene expression in cultured skin fibroblastic cells; type: cell-based, human
Experimental: As the cultured human fibroblastic cells, fibroblastic cells from normal human skin were purchased (Cell Application, Inc.) and used in the experiments. They were inoculated in DMEM medium supplemented with 10% FBS, 20 mM HEPES, Glutamax and antibacterial agents and cultured at 37° C. in 5% CO2. On the 6th day of culture, 50 ng/mL of cortisol or 10 μM of forskolin was added, and the samples were harvested at various times after time 0, which was defined as the time immediately after the addition of cortisol or forskolin. RNA was extracted from the cells with a commercially available RNA extraction kit, and the amounts of expression of the intended genes were measured by RT-PCR technology using commercially available PCR primers (Perfect Real Time Primer, Takara Bio). As for clock genes, amounts of expression of Period (represented by Period1) and Bmal1, which are involved in the core system, were determined. Similarly, the amounts of expression of a housekeeping gene RPLP0 were quantified and used as an internal standard to calculate the relative expression of the intended genes to RPLP0. […]

[2] = test system: Bmal1 gene; test: Bmal1 gene expression (RT-PCR, relative to RPLP0) in cultured human skin fibroblastic cells; type: cell-based; settings: expression at 2 and 16 hours after stimulation
Experimental: As the cultured human fibroblastic cells, fibroblastic cells from normal human skin were purchased (Cell Application, Inc.) and used in the experiments. They were inoculated in DMEM medium supplemented with 10% FBS, 20 mM HEPES, Glutamax and antibacterial agents and cultured at 37° C. in 5% CO2. On the 6th day of culture, 50 ng/mL of cortisol or 10 μM of forskolin was added, and the samples were harvested at various times after time 0, which was defined as the time immediately after the addition of cortisol or forskolin. RNA was extracted from the cells with a commercially available RNA extraction kit, and the amounts of expression of the intended genes were measured by RT-PCR technology using commercially available PCR primers (Perfect Real Time Primer, Takara Bio). As for clock genes, amounts of expression of Period (represented by Period1) and Bmal1, which are involved in the core system, were determined. Similarly, the amounts of expression of a housekeeping gene RPLP0 were quantified and used as an internal standard to calculate the relative expression of the intended genes to RPLP0. […] Test substances were evaluated for the expression modulating effect on a Bmal gene based on the amount of gene expression at 16 hours after stimulation. […]

SMILES | Induction of Period gene expression rhythm or promotion of its expression (in words) [1] | Induction of Bmal1 expression rhythm and increase of Bmal1 gene expression (in words) [2]
C=C1CC/C=C(\C)CC[C@@H]2[C@@H]1CC2(C)C [beta-Caryophyllene] | can induce expression rhythm of a Period gene or promote its expression | –
C[C@]12CCC(=O)C=C1CC[C@@H]1[C@@H]2[C@@H](O)C[C@@]2(C)[C@H]1CC[C@]2(O)C(=O)CO [cortisol] | – | significantly increase amounts of gene expression of Bmal1
